Reference: BindingDB's records for doi:10.1016/0922-4106(94)90065-5 (National Children's Medical Research Center, 1994)

Molecular target: T1, Alpha-1B adrenergic receptor (Mesocricetus auratus, UniProt P18841)
T1 sequence (P18841 whole entry): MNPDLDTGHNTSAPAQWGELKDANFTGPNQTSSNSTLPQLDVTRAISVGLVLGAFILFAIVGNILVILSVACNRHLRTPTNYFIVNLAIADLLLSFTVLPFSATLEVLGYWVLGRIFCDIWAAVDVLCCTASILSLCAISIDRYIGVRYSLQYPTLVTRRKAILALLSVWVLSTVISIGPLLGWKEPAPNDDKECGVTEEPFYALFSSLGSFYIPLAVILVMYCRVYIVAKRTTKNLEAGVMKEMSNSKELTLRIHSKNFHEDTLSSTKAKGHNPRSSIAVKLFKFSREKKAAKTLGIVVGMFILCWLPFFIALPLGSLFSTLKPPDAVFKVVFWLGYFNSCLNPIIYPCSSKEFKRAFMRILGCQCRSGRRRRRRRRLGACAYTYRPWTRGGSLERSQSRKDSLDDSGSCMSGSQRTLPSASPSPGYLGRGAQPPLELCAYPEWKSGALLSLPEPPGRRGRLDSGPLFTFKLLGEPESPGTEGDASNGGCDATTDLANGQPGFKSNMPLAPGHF

SMILES	Ki
COc1ccccc1N1CCN(CCCNc2c(C)c(=O)n(C)c(=O)n2C)CC1 [Urapidil-5-methyl]	0.18 µM
COC(=O)[C@@H]1[C@H]2C[C@H]3c4[nH]c5ccccc5c4CCN3C[C@@H]2CC[C@@H]1O [yohimbic acid methyl ester]	0.67 µM
COc1ccc(OC)c(C(O)C(C)N)c1 (stereo not drawn)	> 10 µM
Cc1ccc(N(CC2=NCCN2)c2cccc(O)c2)cc1 [SMR000059054]	0.018 µM
COc1cccc(OC)c1OCCNCC1Oc2ccccc2OC1c1ccccc1 (stereo not drawn) [NSC_185453]	0.0052 µM
CNCC(O)c1ccc(O)c(O)c1 (stereo not drawn) [EPINEPHRINE]	9.4 µM
NCC(O)c1ccc(O)c(O)c1 (stereo not drawn) [Noradrenaline,(+)]	0.92 µM
CC(C)NCC(O)c1ccc(O)c(O)c1 (stereo not drawn) [Isoproterenol,(+)]	> 10 µM
